Measurements published in US20220288130A1, “COMPOSITIONS AND METHODS FOR DIAGNOSIS AND TREATMENT OF METABOLIC DISEASES AND DISORDERS” (University of Louisville Research Foundation, Inc., priority 2019, published 2022).

Key:
[1] = system: mouse hepatocytes (FL83B cells); assay: Glucose uptake assay (Glucose Uptake-Glo); assay type: cell-based; details: two-log difference in PC (34:2) concentration
Protocol: Glucose uptake assay. Glucose uptake was performed using the Glucose Uptake-Glo™ Assay from Promega (J1341) in accordance with the manufacturer's instructions. Briefly, 2×10^4 cells were seeded into 96 well tissue culture plate in complete medium. […] Cells were treated with 1 nM of insulin for an additional 1 hour. Medium was removed and cells were washed twice with PBS. 50 μof 2-deoxyglucose (DG, 1 mM per well) was added and incubated for 1 hour at room temperature (RT). 25 μl of stop buffer added and mixed briefly, then 25 μl of neutralization buffer added and shaken briefly. 100 μl of 2DG6P detection reagent was added and the mixture shaken for 3 hours at RT. Luminescence was recorded with 135 gain efficiency using a SYNERGY H1 (BioTek Instruments, Inc., Winooski, Vt.) luminometer. […] These supernatants (0.5 ml) were further used in hepatocyte (cultured with 0.5×10^6 fecal exosomes) cultures to determine the which cytokines were induced by fecal exosome treatment of macrophages.

AhR in FL83B cells = assay: AhR and pAhR expression in hepatocytes (western blot); assay type: cell-based, mouse
Protocol: Cells. Murine hepatocytes (FL83B) and human hepatocytes (HepG2) (obtained from the American Type Culture Collection, ATCC®, Manassas, Va.) were grown in tissue culture plates with F12K medium (Thermo Fisher Scientific,) supplemented with 10% heat-inactivated fetal bovine serum (FBS), 100 U ml-1 penicillin, and […] streptomycin at 37° C. in a 5% CO2 atmosphere. Human monocytes (U937) were grown in RPMI 1640 medium (Thermo Fisher Scientific, Waltham, Mass.) supplemented with 10% FBS. For fecal exosomes (with or without PKH26 labeling) treatment for FL83B and HepG2 cells, 2×10^4 cells were seeded into six well plates. After achieving 50-60% confluence, fecal exosomes (numbers indicated in Figures) were added and incubated for 16 hours at 37° C. in a 5% CO2 atmosphere. Cells were washed with PBS and processed for imaging, RNA isolation, and protein extraction. […]
Western blot analysis. […] Protein concentrations were determined using the BioRad Protein Assay Reagent. […] Individual protein was detected with specific antibodies and visualized by infrared fluorescent secondary antibodies (Table 2). The protein bands were visualized and analyzed on an Odyssey CLx Imager (LiCor Inc, Lincoln, Nebr.).

phosphatidylcholine [PC (34:2)]
glucose uptake, dose dependence [1]: inhibited in a PC-dose dependent manner | AhR expression in hepatocytes (AhR in FL83B cells): confirmed in a PC-dose dependent manner
